Results: patent US6743445B2, “Low temperature coatings” (BTG International Limited, priority 1998, dated 2004)
Where a name gives a salt, the structure may show the parent alone.

Assays:
[1] = Influence of plasticiser type on the MFFT of Surelease dispersion; format: physicochemical; conditions: plasticiser added by high-shear mixing
Protocol: (§1) Two different methods were used to evaluate the influence of plasticiser type, quantity and incorporation technique on the MFFT on Surelease® EA7100 and Aquacoat® ECD30. The minimum film-forming temperature (MFFT) is the lowest temperature at which the film-forming composition solidifies to form a film.
(§2) The first was by pouring the dispersions onto glass petri dishes. These dispersions were dried at ambient temperature (15-25° C.) in Class 2 cleanroom environment and inspected visually. They referred to the plasticisation level needed to form films at 20±5° C. The same numerical grading system was used to evaluate the mixed films of examples 2 to 4.
(§3) The second method determined the specific MFFT for each formulation. A MFFT bar was used. The hot water bath on one end of the MFFT bar was set at 46±1° C. and the cold water bath on the other end was set at 3±1° C. This created a temperature gradient of 32.5±1.0° C. to 12±1.0° C. across the spreading surface. The temperature gradient across the MFFT bar was allowed to equilibrate for at least two hours prior to use. The temperatures were measured at the beginning and at the end of each experiment using a Jenway 3070 digital-display thermometer. The apparatus was levelled using the adjustable support and a spirit level. The plasticised dispersion formulations were spread across the surface. Once spread, the film was allowed to form at room humidity. After the film had dried, the lowest temperature on the bar at which the film was still continuous was taken as the MFFT. If the film became discontinuous in between two temperature sampling points then the higher of the two sampled temperatures was taken to be the MFFT. All experiments were duplicated. The reported MFFT was an average of the four temperatures taken at the beginning and at the end of each duplicate experiment.
(§4) In the third technique, the required amount of plasticiser, Tween 80™ and the pseudolatex were mixed with a high speed Silverson homogeniser mixer for 3 minutes. The additional plasticiser content of compositions comprising Surelease® has between 0 and 12% by weight of the ethyl cellulose solids. For compositions comprising Aquacoat®, plasticiser contents of between 18 and 30% by weight of the ethyl cellulose solids were investigated. In all cases Tween 80™ was present in an amount of 0.01% by weight of the dispersion. The formulations were left overnight in sealed containers. Any formulations that remained foamy after overnight storage were not investigated further. Otherwise, the formulations were evaluated on the MFFT apparatus. The plasticisers used were dibutyl sebacate, triethyl citrate, triacetin, acetyl tributyl citrate, tributyl citrate, polypropylene glycol, glycerol and polyethylene glycol 400.

[2] = Influence of plasticiser type on the MFFT of Aquacoat dispersion; format: physicochemical; conditions: plasticiser added as emulsion
Protocol: as §1, §2, §3, §4
In the final technique, Tween 80, the plasticiser and water were premixed into a crude emulsion prior to addition to ethyl cellulose coating dispersions. A plasticiser emulsion was formed by mixing parts of plasticiser and water with 0.1% of Tween 80™ using a Silverson homogeniser mixer. The freshly mixed plasticiser emulsion was then added to the ethyl cellulose coating dispersion by magnetic stirring for 30 minutes. […] Only Aquacoat® ECD30 formulations were investigated. Aquacoat® ECD30 was plasticised with dibutyl sebacate, triethyl citrate, triacetin, acetyl tributyl citrate, tributyl citrate, polypropylene glycol, glycerol and polyethylene glycol 400. The basic formulations comprise between 18 and 36% of plasticiser by weight of solids in the dispersion and 0.1% w/w Tween 80.

SMILES | Lowering of the MFFT of Surelease® [1] | Lowering of the MFFT of Aquacoat® [2]
CCCCOC(=O)CC(CC(=O)OCCCC)(OC(C)=O)C(=O)OCCCC [acetyl tributyl citrate] | successful in lowering the MFFT | successful in lowering the MFFT
CCCCOC(=O)CCCCCCCCC(=O)OCCCC [dibutyl sebacate] | successful in lowering the MFFT | successful in lowering the MFFT
OCC(O)CO [glycerol] | unsuccessful | unsuccessful
CC(=O)OCC(COC(C)=O)OC(C)=O [triacetin] | – | lowering the MFFT
CCCCOC(=O)CC(O)(CC(=O)OCCCC)C(=O)OCCCC [tributyl citrate] | successful in lowering the MFFT | successful in lowering the MFFT
CCOC(=O)CC(O)(CC(=O)OCC)C(=O)OCC [triethyl citrate] | – | lowering the MFFT
